Source: US9670126B2, “Methods of making 15-hydroxy fatty acid derivatives” (Dignity Sciences Limited, priority 2013, dated 2017)

Assays:
[1] = Heat stability trial of HETrE under solvent removal conditions (reflux in 40% MtBE:cyclohexane), UPLC; assay type: physicochemical
Experimental: (§1) Previously, neat HETrE heated at 50° C.
A heat stability trial was conducted where a solution of HETrE (˜9.1 g) in 500 mL 40% MtBE: cyclohexane was heated at 75° C. (external oil bath temperature) at 400 mbar vacuum (condenser coolant temperature −0° C.). This established a gentle reflux. The solution was protected from light. Samples were withdrawn at various time points, under a nitrogen atmosphere, and analysed by UPLC (252 nm) (FIG. 15).
The conditions were designed to mimic the likely conditions encountered on a plant scale solvent removal from pooled column fractions. […] The reflux was extended over a further 112 hours.

[2] = Neat HETrE heated at 50° C. under vacuum; assay type: physicochemical; conditions: under vacuum (1822-129-4E), 1 major impurity, ester formed with itself
Experimental: as §1

[3] = Solubility (reactor cleaning); conditions: residues
[4] = cited from earlier work
[5] = Storage stability of freeze dried enzyme, judged in the DGLA reaction; conditions: stored at ambient, atmospheric conditions for two weeks; then 1.8 Munits/g DGLA
Experimental: It was also observed that the freeze dried enzyme supplied had good stability. Although recommended to be stored at −20° C., and desiccated after use, the batch was stored at ambient, atmospheric conditions for two weeks before being utilised in a reaction using the optimised enzyme loadings (1.8 Munits/g DGLA). […] The reaction was carried out in buffer solution to maintain pH and solubilise reaction components. Cysteine, a mild reducing agent, was used in place of sodium borohydride. Use of cysteine enabled the oxidation/reduction reaction to be carried out in one step. In addition no flammable hydrogen was generated during reaction/quench. Furthermore, fewer over-oxidation products were produced, likely due to cysteine's anti-oxidant properties. It is also believed that the addition of the reducing agent at beginning of the process helps to lessen irreversible enzyme inactivation by high concentrations of hydroperoxide, thus leading to lower enzyme requirement (e.g., cost savings) and lower potential for over-oxidation.

CCCCC[C@H](O)/C=C/C=C\C/C=C\CCCCCCC(=O)O [15(S)-HETrE, 15-(S)-hydroxyeicosatrienoic acid]
degradation on extended refluxing ([1]; 4.5 days refluxing in 40% MtBE:cyclohexane, external temperature 75° C.): did not cause significant degradation
degradation under plant-typical solvent evaporation conditions ([1]; in solution and on hot surfaces, timescale of <2 days): no significant degradation
degradation of neat material [2]: showed degradation
solubility in alcohols such as ethanol and methanol, or acetone [3]: readily soluble

N[C@@H](CS)C(=O)O [Cysteine]
solubility in ethanol ([4]; 19° C.): 1.5 g/100 g of ethanol

N[C@@H](CSSC[C@H](N)C(=O)O)C(=O)O [cystine]
solubility in 1M HCl with heating ([4]; 1M HCl with heating): 50 mg/mL
solubility in basic solutions ([4]; basic solutions): soluble

B1: freeze dried enzyme: commercial freeze-dried soybean lipoxygenase (protein, UniProt P08170 1-839, looked up)
Seed linoleate …: MFSAGHKIKGTVVLMPKNELEVNPDGSAVDNLNAFLGRSVSLQLISATKADAHGKGKVGKDTFLEGINTSLPTLGAGESAFNIHFEWDGSMGIPGAFYIKNYMQVEFFLKSLTLEAISNQGTIRFVCNSWVYNTKLYKSVRIFFANHTYVPSETPAPLVSYREEELKSLRGNGTGERKEYDRIYDYDVYNDLGNPDKSEKLARPVLGGSSTFPYPRRGRTGRGPTVTDPNTEKQGEVFYVPRDENLGHLKSKDALEIGTKSLSQIVQPAFESAFDLKSTPIEFHSFQDVHDLYEGGIKLPRDVISTIIPLPVIKELYRTDGQHILKFPQPHVVQVSQSAWMTDEEFAREMIAGVNPCVIRGLEEFPPKSNLDPAIYGDQSSKITADSLDLDGYTMDEALGSRRLFMLDYHDIFMPYVRQINQLNSAKTYATRTILFLREDGTLKPVAIELSLPHSAGDLSAAVSQVVLPAKEGVESTIWLLAKAYVIVNDSCYHQLMSHWLNTHAAMEPFVIATHRHLSVLHPIYKLLTPHYRNNMNINALARQSLINANGIIETTFLPSKYSVEMSSAVYKNWVFTDQALPADLIKRGVAIKDPSTPHGVRLLIEDYPYAADGLEIWAAIKTWVQEYVPLYYARDDDVKNDSELQHWWKEAVEKGHGDLKDKPWWPKLQTLEDLVEVCLIIIWIASALHAAVNFGQYPYGGLIMNRPTASRRLLPEKGTPEYEEMINNHEKAYLRTITSKLPTLISLSVIEILSTHASDEVYLGQRDNPHWTSDSKALQAFQKFGNKLKEIEEKLVRRNNDPSLQGNRLGPVQLPYTLLYPSSEEGLTFRGIPNSISI
performance after storage [5]: No deterioration in performance
